“Also recorded” adds a separate entry of the source.
Assays:
[1] = tested on: noise-induced hearing loss (NIHL) in C57BL/6J mice; assay: NIHL prevention protocol: drug i.p. two hours before white noise (110 dB SPL, 30 min), ABR thresholds / threshold shifts two weeks after noise; conditions: for ED50: Mus musculus, ip, 2 h, read-out: median effective dose (ED50) to prevent noise-induced hearing loss; for drug effect on ABR threshold shift (two-way ANOVA), prevention: all dosages
[2] = tested on: noise-induced hearing loss (NIHL) in C57BL/6J mice; assay: NIHL treatment protocol: drug i.p. 24 hours after white noise (110 dB SPL, 30 min), ABR threshold shifts; conditions: for ED50: Mus musculus, ip, 24 h, read-out: median effective dose (ED50) to treat noise-induced hearing loss; for drug effect on ABR threshold shift (two-way ANOVA), treatment / gender effect on ABR threshold shift (two-way ANOVA), treatment: 24 hours after noise
cultured auditory cells = conditions: cited from earlier work
NIHL in mice [3] = conditions: intraperitoneal injections; cited from earlier work
NIHL in mice [4] = conditions: cited from earlier work; for prophylactic and therapeutic effects against NIHL: drinking water, three weeks before noise

C[C@H]1C[C@@H]2[C@H]([C@@H](O)C[C@@]3(C)[C@H]2CC[C@]3(O)C(=O)CO)[C@@]2(C)C=CC(=O)C=C12 [methylprednisolone]
ED50 [1]: 525 mg/kg | ED50 [2]: 95.6 mg/kg

Fc1ccc(C(c2ccc(F)cc2)N2CCN(C/C=C/c3ccccc3)CC2)cc1 [flunarizine]
cisplatin-induced cell death (cultured auditory cells): inhibit cisplatin-induced death of cultured auditory cells | NIHL prophylactic function (NIHL in mice [3]): no NIHL prophylactic functions

NS(=O)(=O)Cc1noc2ccccc12 [zonisamide]
ED50 [1]: 125 mg/kg | dosage dependence of NIHL prevention ([1]; two hours before noise): clear dosage-dependent prevention of NIHL | gender effect on ABR threshold shift (two-way ANOVA), prevention ([1]; two hours before noise): the gender had no effects; also recorded: showed no gender differences | drug effect on ABR threshold shift (two-way ANOVA), prevention ([1]; two hours before noise): statistically significant drug effects | drug effect on ABR threshold shift (two-way ANOVA), treatment [2]: no statistically significant drug effects | gender effect on ABR threshold shift (two-way ANOVA), treatment [2]: the gender had no effects as well | ED50 [2]: 2540 mg/kg

CN1C(=O)OC(C)(C)C1=O [trimethadione]
prophylactic and therapeutic effects against NIHL (NIHL in mice [4]): both prophylactic and therapeutic effects | gender dependence of therapeutic effect against NIHL (NIHL in mice [4]; mouse, in vivo): observed only in male mice | outer hair cell (OHC) protection (NIHL in mice [4]; mouse, in vivo): OHC protection was observed

COCC(=O)O[C@]1(CCN(C)CCCc2nc3ccccc3[nH]2)CCc2cc(F)ccc2[C@@H]1C(C)C [mibefradil]
NIHL prophylactic function (NIHL in mice [3]): no NIHL prophylactic functions

CCC1(C)CC(=O)NC1=O (stereo not drawn) [ethosuximide]
prophylactic and therapeutic effects against NIHL (NIHL in mice [4]): both prophylactic and therapeutic effects | effect on NIHL (Tukey/Kramer post-hoc) ([1]; 60 mg/kg, two hours before noise): significantly enhanced NIHL | effect on NIHL (Tukey/Kramer post-hoc) ([1]; 90 mg/kg, two hours before noise): significantly protected against NIHL | effect on NIHL (Tukey/Kramer post-hoc) ([1]; 130 to 260 mg/kg, two hours before noise): reduced to no significance | median effective dose (ED50) to prevent noise-induced hearing loss ([1]; i.p. two hours before noise, calculated with CompuSyn (Chou-Talalay)): no ED50; also recorded: could not be obtained | gender effect on ABR threshold shift (two-way ANOVA), prevention ([1]; two hours before noise): showed no gender differences | drug effect on ABR threshold shift (two-way ANOVA), prevention ([1]; two hours before noise): statistically significant main effect of drug concentrations | drug effect on ABR threshold shift (two-way ANOVA), treatment [2]: statistically significant drug effects | gender effect on ABR threshold shift (two-way ANOVA), treatment [2]: the gender effect was also significant; also recorded: gender difference was also observed | ED50 [2]: 243 mg/kg

C[C@@H]1C[C@H]2[C@@H]3CCC4=CC(=O)C=C[C@]4(C)[C@@]3(F)[C@@H](O)C[C@]2(C)[C@@]1(O)C(=O)CO [dexamethasone]
ED50 [1]: 39.4 mg/kg | ED50 [2]: 96.3 mg/kg

Source: patent US20160022699A1, “COMBINATIONS AND METHODS FOR TREATING NON AGE-RELATED HEARING IMPAIRMENT IN A SUBJECT” (Washington University, priority 2012, published 2016)
